Source: patent publication US9580390B2, “Indazole compounds as kinase inhibitors and method of treating cancer with same” (University Health Network, priority 2011, dated 2017)

Tests used:
[1] = molecular target: T1, human TTK (Homo sapiens, UniProt P33981); test: TTK inhibition assay (indirect ELISA); type: biochemical; conditions: read-out: TTK IC50 Range
T1 construct: amino terminal GST fusion of full length human TTK; purchased Invitrogen
T1 sequence (P33981 1-857): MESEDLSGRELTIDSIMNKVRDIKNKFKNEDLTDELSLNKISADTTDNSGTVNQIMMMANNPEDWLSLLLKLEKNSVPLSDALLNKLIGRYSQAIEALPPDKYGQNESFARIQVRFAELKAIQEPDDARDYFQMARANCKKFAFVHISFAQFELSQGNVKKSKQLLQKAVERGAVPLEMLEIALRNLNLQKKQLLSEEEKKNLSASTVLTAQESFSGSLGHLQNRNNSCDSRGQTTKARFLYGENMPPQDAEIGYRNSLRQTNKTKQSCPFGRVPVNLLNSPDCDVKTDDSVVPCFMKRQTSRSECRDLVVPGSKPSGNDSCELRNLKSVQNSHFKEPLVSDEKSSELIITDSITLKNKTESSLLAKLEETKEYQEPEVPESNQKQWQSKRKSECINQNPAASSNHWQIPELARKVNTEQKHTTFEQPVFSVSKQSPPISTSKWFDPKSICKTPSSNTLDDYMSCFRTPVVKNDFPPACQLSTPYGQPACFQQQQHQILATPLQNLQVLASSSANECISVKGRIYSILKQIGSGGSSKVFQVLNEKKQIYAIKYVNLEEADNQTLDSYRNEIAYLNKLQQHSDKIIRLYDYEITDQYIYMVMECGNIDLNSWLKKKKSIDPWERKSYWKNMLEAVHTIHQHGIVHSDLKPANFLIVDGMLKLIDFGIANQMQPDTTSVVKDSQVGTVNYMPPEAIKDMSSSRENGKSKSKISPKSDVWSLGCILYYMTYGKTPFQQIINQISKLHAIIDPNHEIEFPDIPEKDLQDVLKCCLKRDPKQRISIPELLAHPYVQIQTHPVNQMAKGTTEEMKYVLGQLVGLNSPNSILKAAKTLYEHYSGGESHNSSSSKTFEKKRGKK

[2] = tested on: Breast cancer cells; test: Cancer cell line growth inhibition (SRB assay); type: cell-based; conditions: Homo sapiens; MDA-MB-468; read-out: Cancer Cell Line GI50 Range MDA-MB-468
[3] = tested on: colon cancer cells (HCT116); test: Cancer cell line growth inhibition (SRB assay); type: cell-based; conditions: Homo sapiens, HCT-116; read-out: Cancer Cell Line GI50 Range HCT116
[4] = tested on: ovarian cancer cells (PA-1); test: Cancer cell line growth inhibition (SRB assay); type: cell-based; conditions: Homo sapiens, PA-1; read-out: Cancer Cell Line GI50 Range PA-1
[5] = tested on: TICs (Colon 12); test: Colon tumor-initiating cell growth inhibition (Alamar Blue); type: cell-based; conditions: 216 h; Colon 12 TICs, 9 days; read-out: Tumor Initiating Cell GI50 Range Colon 12

Compound | IC50 [1] | GI50 [2] | GI50 [3] | GI50 [4] | GI50 [5]
O=C(N[C@H](c1ccccn1)C1CC1)c1ccc2[nH]nc(-c3ccc(N4[C@@H]5CC[C@H]4COC5)cc3)c2c1 [Example A414, 3-(4-((1R,5S)-3-oxa-8-azabicyclo[3.2.1]octan-8-yl)phenyl)-N-((S)-cyclopropyl(pyridin-2-yl)methyl)-1H-indazole-5-carboxamide] | < 100 nM | < 100 nM | < 100 nM | < 100 nM | < 100 nM
O=C(N[C@@H](c1ccccn1)C1CCCC1)c1ccc2[nH]nc(-c3ccc(N4C5CCC4CC(O)C5)cc3)c2c1 (stereo partly drawn) [Example A364, N-((R)-cyclopentyl(pyridin-2-yl)methyl)-3-(4-((1R,3R,5S)-3-hydroxy-8-azabicyclo[3.2.1]octan-8-yl)phenyl)-1H-indazole-5-carboxamide] | < 100 nM | < 100 nM | < 100 nM | < 100 nM | < 100 nM
CC(C)CC(NC(=O)c1ccc2[nH]nc(-c3ccc(O[C@H]4C[C@H]5CC[C@@H](C4)N5C4COC4)cc3)c2c1)c1ccccc1 (stereo partly drawn) [Example A338, N-(3-methyl-1-phenylbutyl)-3-(4-(((1R,3R,5S)-8-(oxetan-3-yl)-8-azabicyclo[3.2.1]octan-3-yl)oxy)phenyl)-1H-indazole-5-carboxamide] | < 100 nM | 100 to 500 nM | 100 to 500 nM | 100 to 500 nM | 
O=C(NCC1(c2ccncc2)CC1)c1ccc2[nH]nc(-c3ccc(N4CCOCC4)cc3)c2c1 [Example A464, 3-(4-morpholinophenyl)-N-((1-(pyridin-4-yl)cyclopropyl)methyl)-1H-indazole-5-carboxamide] | 100 to 500 nM | > 500 nM | > 500 nM | 100 to 500 nM | 
O=C(NCC1(c2ccccc2)CCOCC1)c1ccc2[nH]nc(-c3ccc(N4CC(N5CCOCC5)C4)cc3)c2c1 [Example A499, 3-(4-(3-morpholinoazetidin-1-yl)phenyl)-N-((4-phenyltetrahydro-2H-pyran-4-yl)methyl)-1H-indazole-5-carboxamide] | < 100 nM | 100 to 500 nM | 100 to 500 nM | 100 to 500 nM | 
CCC(CC)(CNC(=O)c1ccc2[nH]nc(-c3ccc(OC4CCN(C[C@@H](C)O)CC4)cc3)c2c1)c1ccccc1 [Example A443, (R)-N-(2-ethyl-2-phenylbutyl)-3-(4-((1-(2-hydroxypropyl)piperidin-4-yl)oxy)phenyl)-1H-indazole-5-carboxamide] | < 100 nM | > 500 nM | 100 to 500 nM | 100 to 500 nM | 
CN1CCC(CNC(=O)c2ccc3[nH]nc(-c4ccc(N5[C@@H]6CC[C@H]5COC6)cc4)c3c2)(c2ccccc2)CC1 [Example A468, 3-(4-((1R,5S)-3-oxa-8-azabicyclo[3.2.1]octan-8-yl)phenyl)-N-((1-methyl-4-phenylpiperidin-4-yl)methyl)-1H-indazole-5-carboxamide] | < 100 nM | > 500 nM | 100 to 500 nM | 100 to 500 nM | 
CN1C2CCC1CC(Oc1ccc(-c3n[nH]c4ccc(C(=O)NC(c5ccccc5)C(F)(F)F)cc34)cc1)C2 (stereo not drawn) [Example A400] | < 100 nM | > 500 nM | 100 to 500 nM | 100 to 500 nM | 
O=C(NCC1(CN2CCOCC2)CCCCC1)c1ccc2[nH]nc(-c3ccc(N4[C@@H]5CC[C@H]4COC5)cc3)c2c1 [Example A510, 3-(4-((1R,5S)-3-oxa-8-azabicyclo[3.2.1]octan-8-yl)phenyl)-N-((1-(morpholinomethyl)cyclohexyl)methyl)-1H-indazole-5-carboxamide] | < 100 nM | 100 to 500 nM | 100 to 500 nM | 100 to 500 nM | 
CN1[C@@H]2CC[C@H]1C[C@H](Oc1ccc(-c3n[nH]c4ccc(C(=O)NC(c5ccccc5)C5CC5)cc34)cc1)C2 (stereo partly drawn) [Example A286, N-(cyclopropyl(phenyl)methyl)-3-(4-(((1R,3S,5S)-8-methyl-8-azabicyclo[3.2.1]octan-3-yl)oxy)phenyl)-1H-indazole-5-carboxamide] | < 100 nM | < 100 nM | < 100 nM | < 100 nM | 
O=C(NCC1(N2CCOCC2)CCC(F)(F)CC1)c1ccc2[nH]nc(-c3ccc(N4CCOCC4)cc3)c2c1 [Example A460, N-((4,4-difluoro-1-morpholinocyclohexyl)methyl)-3-(4-morpholinophenyl)-1H-indazole-5-carboxamide] | < 100 nM | > 500 nM | > 500 nM | > 500 nM | 
CN1C2CCC1CC(Oc1ccc(-c3n[nH]c4ccc(C(=O)NC(c5ccccn5)C5CCCC5)cc34)cc1)C2 (stereo not drawn) [Example A398, N-(cyclopentyl(pyridin-2-yl)methyl)-3-(4-((8-methyl-8-azabicyclo[3.2.1]octan-3-yl)oxy)phenyl)-1H-indazole-5-carboxamide] | < 100 nM | < 100 nM | < 100 nM | < 100 nM | 
CCC(CC)(CNC(=O)c1ccc2[nH]nc(-c3ccc(N4CCN(C)CC4)cc3)c2c1)N1CCOCC1 [Example A465, N-(2-ethyl-2-morpholinobutyl)-3-(4-(4-methylpiperazin-1-yl)phenyl)-1H-indazole-5-carboxamide] | < 100 nM | 100 to 500 nM | 100 to 500 nM | < 100 nM | 
O=CN1C2CCC1CC(Oc1ccc(-c3n[nH]c4ccc(C(=O)N[C@H](c5ccccn5)C5CCCC5)cc34)cc1)C2 (stereo partly drawn) [Example A348, N-((S)-cyclopentyl(pyridin-2-yl)methyl)-3-(4-(((1R,3R,5S)-8-formyl-8-azabicyclo[3.2.1]octan-3-yl)oxy)phenyl)-1H-indazole-5-carboxamide] | < 100 nM | < 100 nM | < 100 nM | < 100 nM | 
CC(C)C[C@H](NC(=O)c1ccc2[nH]nc(-c3ccc(N4CCN(C5COC5)CC4)cc3)c2c1)c1ccccc1 [Example A371, (S)-N-(3-methyl-1-phenylbutyl)-3-(4-(4-(oxetan-3-yl)piperazin-1-yl)phenyl)-1H-indazole-5-carboxamide] | < 100 nM | 100 to 500 nM | < 100 nM | < 100 nM | 

Second part, led by results:

IC50 [1] | GI50 [2] | GI50 [3] | GI50 [4] | Compound | GI50 [5]
< 100 nM | < 100 nM | < 100 nM | < 100 nM | O=C(N[C@H](c1ccccn1)C1CCCC1)c1ccc2[nH]nc(-c3ccc(N4CC(N5CCOCC5)C4)cc3)c2c1 [Example A314] | < 100 nM
< 100 nM | > 500 nM | 100 to 500 nM | 100 to 500 nM | CC(C)C(NC(=O)c1ccc2[nH]nc(-c3ccc(OC4CN(C)C4)cc3)c2c1)c1ccccc1Cl (stereo not drawn) [Example A289, N-(1-(2-chlorophenyl)-2-methylpropyl)-3-(4-((1-methylazetidin-3-yl)oxy)phenyl)-1H-indazole-5-carboxamide] | 
< 100 nM | 100 to 500 nM | < 100 nM | < 100 nM | O=C(N[C@@H](c1ccccc1F)C1CC1)c1ccc2[nH]nc(-c3ccc(N4CCN(C5COC5)CC4)cc3)c2c1 [Example A270, (R)-N-(cyclopropyl(2-fluorophenyl)methyl)-3-(4-(4-(oxelan-3-yl)piperazin-1-yl)phenyl)-1H-indazole-5-carboxamide] | 
< 100 nM | > 500 nM | > 500 nM | 100 to 500 nM | CN1CCC(=O)c2cc(-c3n[nH]c4ccc(C(=O)N[C@H](c5ccccn5)C5CCCC5)cc34)ccc21 [Example A242, (S)-N-(cyclopentyl(pyridin-2-yl)methyl)-3-(1-methyl-4-oxo-1,2,3,4-tetrahydroquinolin-6-yl)-1H-indazole-5-carboxamide] | 
< 100 nM | > 500 nM | > 500 nM | > 500 nM | CC1(C)CC(=O)c2cc(-c3n[nH]c4ccc(C(=O)N[C@H](c5ccccn5)C5CC5)cc34)ccc2O1 [Example A236, (S)-N-(cyclopropyl(pyridin-2-yl)methyl)-3-(2,2-dimethyl-4-oxochroman-6-yl)-1H-indazole-5-carboxamide] | 
< 100 nM | > 500 nM | > 500 nM | > 500 nM | Cc1cc(=O)n(C)c2ccc(-c3n[nH]c4ccc(C(=O)NCC5(N6CCOCC6)CCCCC5)cc34)cc12 [Example A491, 3-(1,4-dimethyl-2-oxo-1,2-dihydroquinolin-6-yl)-N-((1-morpholinocyclohexyl)methyl)-1H-indazole-5-carboxamide] | 
